# Assay results reported in patent US10519114B2, “Peptidomimetics and methods of using the same” (The Regents of the University of Michigan, priority 2016, dated 2019).
# Target: T1, human κ (CHO-KOR) opioid receptor (Homo sapiens, UniProt P41145)
# T1 construct: expressed in transfected cells
# Experiment: Stimulation of [35S]GTPγS binding, KOR
# Type: biochemical
# Conditions: [35S]GTPγS binding, CHO-KOR membranes; mean ± standard error
# Procedure, shortened: (§1)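 Membranes (10–20 μg protein) from C6 glioma cells expressing rat MOR or DOR, or CHO cells expressing human KOR, were incubated 1 h at room temperature with 0.1 nM [35S]GTPγS, 30 μM GDP and test peptides in Tris buffer pH 7.4. Bound label was filtered and counted; maximal stimulation, by nonlinear regression, was relative to 10 μM DAMGO (MOR), DPDPE (DOR) or U69,593 (KOR).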
# T1 sequence (P41145 whole entry): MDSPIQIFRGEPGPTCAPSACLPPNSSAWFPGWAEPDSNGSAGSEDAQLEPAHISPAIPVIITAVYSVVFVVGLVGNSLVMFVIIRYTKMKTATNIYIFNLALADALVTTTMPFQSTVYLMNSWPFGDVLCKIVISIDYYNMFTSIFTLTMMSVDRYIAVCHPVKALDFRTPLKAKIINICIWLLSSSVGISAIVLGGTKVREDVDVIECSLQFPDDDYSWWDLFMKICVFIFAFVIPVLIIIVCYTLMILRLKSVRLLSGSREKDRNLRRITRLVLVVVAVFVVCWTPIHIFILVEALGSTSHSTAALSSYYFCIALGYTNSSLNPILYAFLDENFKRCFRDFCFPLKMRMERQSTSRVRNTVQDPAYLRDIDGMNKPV
row,Compound,EC50 [nM]
1,Cc1cc(O)cc(C)c1C[C@H](N)C(=O)N[C@@H]1CCOc2ccc(Cc3ccccc3)cc21 [Compound 1111],662 ± 152

# Same assay, conditions: [35S]GTPγS maximal stimulation compared with 10 μM standard U-69,593
row,Compound,Emax [%]
1,Cc1cc(O)cc(C)c1C[C@H](N)C(=O)N[C@H]1CCNc2ccc(Cc3ccc(F)cc3)cc21 [Compound 1010],0
2,Cc1cc(O)cc(C)c1C[C@H](N)C(=O)N[C@@H]1CCOc2ccc(Cc3ccccc3)cc21 [Compound 1111],28.3 ± 6.71

# Target: T2, rat δ (C6-DOR) opioid receptor (Rattus norvegicus, UniProt P33533)
# T2 construct: expressed in transfected cells
# Experiment: Radioligand binding assay, [3H]diprenorphine displacement, DOR
# Conditions: displacement of 0.2 nM [3H]diprenorphine, C6-DOR membranes; mean ± standard error
# Procedure, shortened: (§2)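 Ki values come from logistic fits of competition data, with filter-bound radioactivity counted after displacement of 0.2 nM [3H]diprenorphine. Membranes were from rat receptor-transfected C6 cells (MOR, DOR) or human KOR-expressing CHO cells. Incubation ran 1 h at room temperature in pH 7.4 Tris-HCl.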
# T2 sequence (P33533 whole entry): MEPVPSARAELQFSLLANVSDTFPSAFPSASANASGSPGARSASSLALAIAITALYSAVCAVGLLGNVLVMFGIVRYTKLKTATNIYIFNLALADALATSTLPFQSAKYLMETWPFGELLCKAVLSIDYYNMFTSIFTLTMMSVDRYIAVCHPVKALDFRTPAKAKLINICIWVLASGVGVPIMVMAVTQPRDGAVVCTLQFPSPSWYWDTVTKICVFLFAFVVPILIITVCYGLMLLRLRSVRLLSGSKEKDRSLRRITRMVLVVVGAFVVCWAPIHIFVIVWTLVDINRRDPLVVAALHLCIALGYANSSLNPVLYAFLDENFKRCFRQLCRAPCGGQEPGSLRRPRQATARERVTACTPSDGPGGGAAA
row,Compound,Ki [nM]
1,Cc1cc(O)cc(C)c1C[C@H](N)C(=O)N[C@@H]1CCNc2c(C)cc(Cc3ccccc3)cc21 [Compound 1100],1.09
2,Cc1cc(O)cc(C)c1C[C@H](N)C(=O)N[C@@H]1CCNc2c(Cc3ccccc3)cc(Cc3ccccc3)cc21 [Compound 1041],0.86
3,Cc1cc(O)cc(C)c1C[C@H](N)C(=O)N[C@@H]1CCNc2c(CN3CCCCC3)cc(Cc3ccccc3)cc21 [Compound 1097],2.41
4,Cc1cc(O)cc(C)c1C[C@H](N)C(=O)N[C@@H]1CCNc2c(C(=O)NCc3ccccc3)cc(Cc3ccccc3)cc21 [Compound 1104],2.17
5,CCOC(=O)c1cc(Cc2ccccc2)cc2c1NCC[C@H]2NC(=O)[C@@H](N)Cc1c(C)cc(O)cc1C [Compound 1102],4.2
6,Cc1cc(O)cc(C)c1C[C@H](N)C(=O)N[C@H]1CCNc2ccc(Cc3ccc(F)cc3)cc21 [Compound 1010],190
7,Cc1cc(O)cc(C)c1C[C@H](N)C(=O)N[C@@H]1CCOc2ccc(Cc3ccccc3)cc21 [Compound 1111],8.65 ± 1.61

# Target: T3, rat μ (C6-MOR) opioid receptor (Rattus norvegicus, UniProt P33535)
# T3 construct: expressed in transfected cells
# Experiment: Stimulation of [35S]GTPγS binding, MOR
# Type: biochemical
# Conditions: [35S]GTPγS binding, C6-MOR membranes; mean ± standard error
# Procedure, shortened: as §1
# T3 sequence (P33535 whole entry): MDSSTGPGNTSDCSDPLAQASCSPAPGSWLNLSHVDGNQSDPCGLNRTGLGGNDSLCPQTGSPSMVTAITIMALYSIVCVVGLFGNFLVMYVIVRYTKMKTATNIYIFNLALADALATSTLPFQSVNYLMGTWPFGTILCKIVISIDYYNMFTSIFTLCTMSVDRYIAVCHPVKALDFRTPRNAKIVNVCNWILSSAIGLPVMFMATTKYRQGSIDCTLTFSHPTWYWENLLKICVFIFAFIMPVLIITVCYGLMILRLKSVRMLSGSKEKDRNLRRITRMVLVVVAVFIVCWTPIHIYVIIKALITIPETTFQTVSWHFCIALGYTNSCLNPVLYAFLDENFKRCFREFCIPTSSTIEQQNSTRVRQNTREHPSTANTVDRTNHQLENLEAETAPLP
row,Compound,EC50 [nM]
1,Cc1cc(O)cc(C)c1C[C@H](N)C(=O)N[C@@H]1CCNc2c(Cc3ccccc3)cc(Cc3ccccc3)cc21 [Compound 1041],7.25
2,Cc1cc(O)cc(C)c1C[C@H](N)C(=O)N[C@@H]1CCNc2c(CN3CCCCC3)cc(Cc3ccccc3)cc21 [Compound 1097],2.32 ± 0.21
3,Cc1cc(O)cc(C)c1C[C@H](N)C(=O)N[C@@H]1CCNc2c(C(=O)NCc3ccccc3)cc(Cc3ccccc3)cc21 [Compound 1104],4.18
4,CCOC(=O)c1cc(Cc2ccccc2)cc2c1NCC[C@H]2NC(=O)[C@@H](N)Cc1c(C)cc(O)cc1C [Compound 1102],4.91 ± 0.28
5,Cc1cc(O)cc(C)c1C[C@H](N)C(=O)N[C@@H]1CCOc2ccc(Cc3ccccc3)cc21 [Compound 1111],4.85 ± 2.14

# Same assay, conditions: [35S]GTPγS maximal stimulation compared with 10 μM standard DAMGO
row,Compound,Emax [%]
1,Cc1cc(O)cc(C)c1C[C@H](N)C(=O)N[C@@H]1CCNc2c(Cc3ccccc3)cc(Cc3ccccc3)cc21 [Compound 1041],73
2,Cc1cc(O)cc(C)c1C[C@H](N)C(=O)N[C@@H]1CCNc2c(CN3CCCCC3)cc(Cc3ccccc3)cc21 [Compound 1097],93 ± 1.67
3,Cc1cc(O)cc(C)c1C[C@H](N)C(=O)N[C@@H]1CCNc2c(C(=O)NCc3ccccc3)cc(Cc3ccccc3)cc21 [Compound 1104],79
4,CCOC(=O)c1cc(Cc2ccccc2)cc2c1NCC[C@H]2NC(=O)[C@@H](N)Cc1c(C)cc(O)cc1C [Compound 1102],70.5 ± 2.61
5,Cc1cc(O)cc(C)c1C[C@H](N)C(=O)N[C@H]1CCNc2ccc(Cc3ccc(F)cc3)cc21 [Compound 1010],58
6,Cc1cc(O)cc(C)c1C[C@H](N)C(=O)N[C@@H]1CCOc2ccc(Cc3ccccc3)cc21 [Compound 1111],69.7 ± 5.97

# Target: T3, rat μ (C6-MOR) opioid receptor
# Experiment: Radioligand binding assay, [3H]diprenorphine displacement, MOR
# Conditions: displacement of 0.2 nM [3H]diprenorphine, C6-MOR membranes; mean ± standard error
# Procedure, shortened: as §2
row,Compound,Ki [nM]
1,Cc1cc(O)cc(C)c1C[C@H](N)C(=O)N[C@@H]1CCNc2c(C)cc(Cc3ccccc3)cc21 [Compound 1100],2.63
2,Cc1cc(O)cc(C)c1C[C@H](N)C(=O)N[C@@H]1CCNc2c(Cc3ccccc3)cc(Cc3ccccc3)cc21 [Compound 1041],0.73
3,Cc1cc(O)cc(C)c1C[C@H](N)C(=O)N[C@@H]1CCNc2c(CN3CCCCC3)cc(Cc3ccccc3)cc21 [Compound 1097],0.07 ± 0.03
4,Cc1cc(O)cc(C)c1C[C@H](N)C(=O)N[C@@H]1CCNc2c(C(=O)NCc3ccccc3)cc(Cc3ccccc3)cc21 [Compound 1104],0.36
5,CCOC(=O)c1cc(Cc2ccccc2)cc2c1NCC[C@H]2NC(=O)[C@@H](N)Cc1c(C)cc(O)cc1C [Compound 1102],1.01 ± 0.28
6,Cc1cc(O)cc(C)c1C[C@H](N)C(=O)N[C@H]1CCNc2ccc(Cc3ccc(F)cc3)cc21 [Compound 1010],10
7,Cc1cc(O)cc(C)c1C[C@H](N)C(=O)N[C@@H]1CCOc2ccc(Cc3ccccc3)cc21 [Compound 1111],0.046 ± 0.028

# Test system: C57BL/6 mice
# Experiment: Antinociception, warm water tail withdrawal assay;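 as to Antinociceptive activity: fully efficacious means no withdrawal up to the 20 s cutoff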
# Type: in vivo
# Conditions: duration of antinociceptive action, mouse tail withdrawal, 50° C.
# Experimental: In Vivo Pharmacology. Animals. Adult male C57BL/6 mice weighing between 20 and 30 g at 8-16 weeks old were used for the current experiments (obtained from Jackson Laboratories (Bar Harbor, Me.), Harlan (Indianapolis, Ind.), or bred in-house). Mice were group-housed and had free access to food and water at all times. Experiments were conducted in the housing room, which was maintained on a 12 h light/dark cycle (with lights on at 0700). Each mouse was used only once and experiments were conducted between 11 a.m. and 4 p.m. Studies were performed in accordance with the University of Michigan Committee on the Use and Care of Animals and the Guide for the Care and Use of Laboratory Animals (National Research Council, 2011 publication).
# Antinociception. The antinociceptive effects of the compounds disclosed herein and morphine can be evaluated in the warm water tail withdrawal assay using a cumulative dosing procedure. To determine tail withdrawal latencies, each mouse was placed briefly into a plastic, cylindrical restrainer and 2-3 cm of the tail tip was placed into a water bath maintained at 50° C. The latency to withdraw the tail was recorded with a maximum cutoff time of 20 s. […] Each animal received an injection of saline (intraperitoneal, ip) and then 30 min later, the baseline withdrawal latencies were recorded and ranged between 3 and 6 s. Following baseline determinations, three increasing doses (1, 2.2, and 6.8 mg/kg) of 1(4R) were given at 30 min intervals to provide final doses of 1, 3.2, and 10 mg/kg. Thirty minutes after each injection, the tail withdrawal latency was measured as described above. To confirm that 1(4R) was acting at opioid receptors, the cumulative dose response was repeated over the doses 3.2, 10, and 32 mg/kg following a 30 min pretreatment with 1 mg/kg naltrexone (ip). To determine the time-course of antinociceptive action the tail-withdrawal test was performed at varying times following administration of morphine (10 mg/kg, ip) or 1(4R) (10 mg/kg, ip).
row,Compound,Duration [min]
1,Cc1cc(O)cc(C)c1C[C@H](N)C(=O)N[C@@H]1CCNc2c(C)cc(Cc3ccccc3)cc21 [Compound 1100],90
2,CCOC(=O)c1cc(Cc2ccccc2)cc2c1NCC[C@H]2NC(=O)[C@@H](N)Cc1c(C)cc(O)cc1C [Compound 1102],150

# Same assay, conditions: mouse tail withdrawal, 50° C. water bath, cutoff 20 s, ip
row,Compound,Antinociceptive activity
1,Cc1cc(O)cc(C)c1C[C@H](N)C(=O)N[C@@H]1CCNc2c(C)cc(Cc3ccccc3)cc21 [Compound 1100],Fully efficacious
2,Cc1cc(O)cc(C)c1C[C@H](N)C(=O)N[C@@H]1CCNc2c(Cc3ccccc3)cc(Cc3ccccc3)cc21 [Compound 1041],Inactive
3,Cc1cc(O)cc(C)c1C[C@H](N)C(=O)N[C@@H]1CCNc2c(CN3CCCCC3)cc(Cc3ccccc3)cc21 [Compound 1097],Inactive
4,Cc1cc(O)cc(C)c1C[C@H](N)C(=O)N[C@@H]1CCNc2c(C(=O)NCc3ccccc3)cc(Cc3ccccc3)cc21 [Compound 1104],Inactive
5,Cc1cc(O)cc(C)c1C[C@H](N)C(=O)N[C@@H]1CCNc2c(F)cc(Cc3ccccc3)cc21 [Compound 1090],Inactive
6,CCOC(=O)c1cc(Cc2ccccc2)cc2c1NCC[C@H]2NC(=O)[C@@H](N)Cc1c(C)cc(O)cc1C [Compound 1102],Fully efficacious

# Target: T1, human κ (CHO-KOR) opioid receptor
# Experiment: Radioligand binding assay, [3H]diprenorphine displacement, KOR
# Conditions: displacement of 0.2 nM [3H]diprenorphine, CHO-KOR membranes; mean ± standard error
# Procedure, shortened: as §2
row,Compound,Ki [nM]
1,Cc1cc(O)cc(C)c1C[C@H](N)C(=O)N[C@@H]1CCNc2c(C)cc(Cc3ccccc3)cc21 [Compound 1100],18.3
2,Cc1cc(O)cc(C)c1C[C@H](N)C(=O)N[C@@H]1CCNc2c(Cc3ccccc3)cc(Cc3ccccc3)cc21 [Compound 1041],13.2
3,Cc1cc(O)cc(C)c1C[C@H](N)C(=O)N[C@@H]1CCNc2c(CN3CCCCC3)cc(Cc3ccccc3)cc21 [Compound 1097],0.71
4,Cc1cc(O)cc(C)c1C[C@H](N)C(=O)N[C@@H]1CCNc2c(C(=O)NCc3ccccc3)cc(Cc3ccccc3)cc21 [Compound 1104],29.4
5,CCOC(=O)c1cc(Cc2ccccc2)cc2c1NCC[C@H]2NC(=O)[C@@H](N)Cc1c(C)cc(O)cc1C [Compound 1102],48.7
6,Cc1cc(O)cc(C)c1C[C@H](N)C(=O)N[C@H]1CCNc2ccc(Cc3ccc(F)cc3)cc21 [Compound 1010],90
7,Cc1cc(O)cc(C)c1C[C@H](N)C(=O)N[C@@H]1CCOc2ccc(Cc3ccccc3)cc21 [Compound 1111],58.3 ± 14.1

# Target: T2, rat δ (C6-DOR) opioid receptor
# Experiment: Stimulation of [35S]GTPγS binding, DOR
# Type: biochemical
# Conditions: [35S]GTPγS binding, C6-DOR membranes; mean ± standard error
# Procedure, shortened: as §1
Compound,EC50 (nm) DOR,EC50 [nM]
Cc1cc(O)cc(C)c1C[C@H](N)C(=O)N[C@@H]1CCNc2c(Cc3ccccc3)cc(Cc3ccccc3)cc21 [Compound 1041],dns,
Cc1cc(O)cc(C)c1C[C@H](N)C(=O)N[C@@H]1CCNc2c(C(=O)NCc3ccccc3)cc(Cc3ccccc3)cc21 [Compound 1104],dns,
CCOC(=O)c1cc(Cc2ccccc2)cc2c1NCC[C@H]2NC(=O)[C@@H](N)Cc1c(C)cc(O)cc1C [Compound 1102],dns,
Cc1cc(O)cc(C)c1C[C@H](N)C(=O)N[C@@H]1CCOc2ccc(Cc3ccccc3)cc21 [Compound 1111],,118 ± 2.45

# Same assay, conditions: [35S]GTPγS maximal stimulation compared with 10 μM standard DPDPE
Compound,% stimulation DOR,Emax [%]
Cc1cc(O)cc(C)c1C[C@H](N)C(=O)N[C@@H]1CCNc2c(Cc3ccccc3)cc(Cc3ccccc3)cc21 [Compound 1041],dns,
Cc1cc(O)cc(C)c1C[C@H](N)C(=O)N[C@@H]1CCNc2c(C(=O)NCc3ccccc3)cc(Cc3ccccc3)cc21 [Compound 1104],dns,
CCOC(=O)c1cc(Cc2ccccc2)cc2c1NCC[C@H]2NC(=O)[C@@H](N)Cc1c(C)cc(O)cc1C [Compound 1102],dns,
Cc1cc(O)cc(C)c1C[C@H](N)C(=O)N[C@H]1CCNc2ccc(Cc3ccc(F)cc3)cc21 [Compound 1010],,12
Cc1cc(O)cc(C)c1C[C@H](N)C(=O)N[C@@H]1CCOc2ccc(Cc3ccccc3)cc21 [Compound 1111],,8.97 ± 4.78
